Key:
[1] = tested on: A2780 (ovarian carcinoma cell line); experiment: MTS cell viability assay, 2D culture, A2780; format: cell-based, human; details: 48 h of exposure
Method: (§1) The in vitro cytotoxic potential of Cu(II) complexes in tumor and healthy cells was assessed using the MTS assay, a colorimetric method that allows the quantification of viable cells in culture.[46]
Cell culture and maintenance
(§2) The cancer cell lines HCT116 (colorectal carcinoma) and A2780 (ovarian carcinoma) were obtained
(§3) from the American Type Culture Collection (ATCC®, Manassas, VA, USA), as well as the normal
human primary dermal fibroblasts.
(§4) Apart from the A2780 cell line, which was cultured in Roswell Park Memorial Institute (RPMI)
(§5) medium, all cells were cultured in Dulbecco’s modified Eagle medium (DMEM). Both media were
(§6) supplemented with 10% (v/v) fetal bovine serum (FBS) and 1% (v/v) of a Pen/Strep
(§7) (Penicillin/Streptomycin) solution. To maintain the resistant phenotype of the HCT116DoxR cell line,
(§8) the medium was additionally supplemented with 3.6 μM Dox4. All media and supplements were
(§9) purchased from Thermo Fischer Scientific (Waltham, MA, USA).
(§10) Cells were maintained in 25 cm2 T-flasks (T25) in a humidified atmosphere at 37 °C and 5% (v/v) CO
(§11) (SANYO CO2 Incubator, Electric Biomedical Co., Osaka, Japan).
(§12) The effect of Cu(II) complexes on cell viability was studied in HCT116, HCT116DoxR, and A2780
(§13) cancer cell lines and in normal human primary fibroblasts. Cells were seeded in a density of 0.75×105
(§14) cells/mL into 96-well plates and incubated in a humidified atmosphere at 37 °C and 5% (v/v) CO2 for
(§15) 24 h. After incubation, complexes were weighed, immediately solubilized in 100% (v/v) DMSO and
(§16) diluted for the final concentration with cell culture medium. The medium in each well was replaced by
(§17) a solution of fresh medium containing each Cu(II) complex (concentrations ranging from 0.01 μM to
(§18) as negative and positive controls, respectively.
(§19) Following a second incubation period of 48 h in the same conditions, the supernatant of each well was
(§20) replaced by a solution containing MTS reagent (3-(4,5-dimethylthiazol-2-yl)-5-(3-
(§21) carboxymethoxyphenyl)-2-(4-sulfophenyl)-2H-tetrazolium) provided by the CellTiter 96® AQueous
(§22) Non-Radioactive Cell Proliferation Assay Kit (Promega, Madison, WI, EUA) for a 30 minutes
(§23) incubation. The percentage of viable cells was indirectly determined by the spectrophotometric
(§24) quantification at 490 nm in a microplate reader, Tecan Infinite M200 (Tecan, Männedorf, Switzerland)
(§25) of formazan production, resultant from the reduction of the MTS reagent by mitochondrial
(§26) dehydrogenases. Since these enzymes are only active in viable cells, the absorbance value measured is
(§27) directly proportional to the percentage of viable cells in culture5.
(§28) By analysing the cell viability as a function of log10(concentration) using Prism 8 (GraphPad
(§29) in cell viability) of each complex in the respective cell line at 48 h. The selective index (SI) for each
(§30) complex was also determined by dividing the IC50 of human fibroblasts by the respective IC50 in each
(§31) cancer cell line (allowing us to understand how much active a complex is in tumor versus normal cell).

[2] = tested on: HCT116DoxR (Dox-resistant colorectal carcinoma cell line); experiment: MTS cell viability assay, 2D culture, HCT116DoxR; details: read-out: IC50 (μM) HCT116DoxR, 48 h of exposure
Method: as §1
In this regard, cell viability was performed for each of the ligands on HCT116DoxR and fibroblasts.
Cell culture and maintenance
as §2, §3
human primary dermal fibroblasts.
as §4, §5, §6, §7, §8, §9, §10, §11, §12, §13, §14, §15, §16, §17, §18, §19, §20, §21, §22, §23, §24, §25, §26, §27

[3] = tested on: HCT116 (colorectal carcinoma cell line); experiment: MTS cell viability assay, 2D culture, HCT116; format: cell-based, human; details: 48 h of exposure
Method: as §1
Cell culture and maintenance
as §2, §3
human primary dermal fibroblasts.
as §4, §5, §6, §7, §8, §9, §10, §11, §12, §13, §14, §15, §16, §17, §18, §19, §20, §21, §22, §23, §24, §25, §26, §27, §28, §29, §30, §31

[4] = tested on: normal human primary dermal fibroblasts; experiment: MTS cell viability assay, normal fibroblasts; format: cell-based; details: 48 h of exposure
Method: as §1
Cell culture and maintenance
as §2, §3
human primary dermal fibroblasts.
as §4, §5, §6, §7, §8, §9, §10, §11, §12, §13, §14, §15, §16, §17, §19, §20, §22, §23, §24, §25

pUC18 plasmid DNA = experiment: pDNA cleavage in vitro (agarose gel electrophoresis); format: biochemical, E. coli; details: for effect of control reagent alone on pUC18 / effect of NaN3 (singlet oxygen scavenger) on pDNA cleavage by the complex: 24 h; for effect of control reagent alone on pUC18: TBHP 20 μM, NaN3 50 μM; for concentration at which the interaction with pDNA reaches saturation / pDNA cleavage mode: 100 ng pUC18, 24 h; for pDNA cleavage mode: 5–100 μM complex; for effect of NaN3 (singlet oxygen scavenger) on pDNA cleavage by the complex: 50 μM complex + 50 μM NaN3
EB–ct-DNA adduct = experiment: Ethidium bromide displacement fluorescence assay; format: binding, calf; details: PBS; for apparent binding constant (Kapp): EB displacement, KEB = 1 × 10^7 M^–1; for Stern–Volmer quenching constant KSV: EB–ct-DNA, 0–40 μM complex
chicken embryos = experiment: Ex-ovo chick chorioallantoic membrane (CAM) assay; format: in vivo; details: IC50, vs DMSO control
BAX and BCL-2 = BAX and BCL-2 protein expression by Western Blot; format: cell-based, human; details: HCT116DoxR, 48 h, IC50; normalized to β-actin
HCT116DoxR cells [5] = experiment: Cell cycle progression (PI, flow cytometry); details: for cell cycle progression after 12 h / cell cycle progression after 18 h: IC50, thymidine double block
Source text: Therefore, we have assessed the cytostatic potential of complexes 2, 3, 5, and 7, and their ability to interfere with the progression of the cell cycle using the fluorescent marker PI. Since this marker can intercalate with DNA, the measurement of the fluorescence emitted by flow cytometry makes it possible to assess the DNA content at each stage of the cell cycle (G0/G1, S, and G2/M).[67] To ensure that all the cells were in the same phase before their exposure to the complexes, a double block was carried out with thymidine, a DNA synthesis inhibitor.[67]
HCT116DoxR cell line was seeded in 6-well plates in a density of 1×10^5 cells/mL and incubated for
24 h. Afterwards, the culture medium was replaced by medium with IC50 concentrations of different
HCT116DoxR cell line was seeded in 6-well plates in a density of 1×10^5 cells/mL, incubated for 8 h in
a humidified atmosphere at 37 °C and 5% (v/v) CO2, and later synchronized in early S-phase with a 2
mM thymidine solution (Merck, Germany) for a 16 h period. Later, medium with thymidine was
replaced by fresh media and, after 8 h a second block with thymidine was performed in the same
concentrations of Cu(II) complexes. 0.1% (v/v) DMSO was used as the vehicle control while 5 μM
After treatment, cells were incubated for 9, 12,

fibroblasts = experiment: Cell migration (wound healing) assay; format: cell-based, human; details: 24 h; complexes at IC50, Dox 0.4 μM; vs DMSO
Source text: A wound healing assay was therefore carried out on fibroblasts to study the influence of the Cu(II) complexes on cell migration in vitro. Skin fibroblasts were the model chosen for this assay as they are essential for regenerating damage in this tissue.[85] […]
intrinsic binding constant Kb can be obtained from the ratio of the slope to the intercept of the linear fit of the plot [DNA]/[εa−εf] versus [DNA].
For emission quenching experiments, equimolar solution of ct-DNA and ethidium bromide (EB, Sigma Aldrich) was prepared and allowed to incubate for 2 h in the dark. The tested complexes were titrated into the formed EB–ct-DNA adduct and incubated for additional 30 min. The final concentration of the EB–ct-DNA adduct was 50 μM and the concentration of the complexes varied from 0 to 40 μM. The fluorescence spectra were recorded on FLS-980 spectrofluorometer (Edinburgh Instruments, Livingston, United Kingdom) with excitation wavelength 515 nm and emission wavelength of 620 nm. The apparent binding constant (Kapp) was calculated using the Equations : […]
where I0 and I are the fluorescence intensity in the absence and presence of the complexes; KSV is the Stern-Volmer quenching constant; [Q] is the concentration of the complexes; [Q1/2] is the concentration of the complex causing 50% reduction in the fluorescence intensity; K = 1×107 […]
conditions mentioned before until the presence of a confluent monolayer was detected. A scratch was made on the surface of each well using a sterile 200 μL micropipette tip and the cells were […]
Each plate was then incubated for 24 h in the same conditions mentioned before. […]
The width of each scratch in each image was measured via ImageJ software. […]
The ex-ovo CAM assay was performed to evaluate the copper(II) complexes’ effect on angiogenesis, as already described in literature11,12. […] Newly formed blood vessels were manually counted via ImageJ software. […]
All results were expressed as mean ± SEM of at least two independent biological assays, each obtained by technical duplicates, unless otherwise specified. […]

[6] = Stability and solubility in biological medium (RPMI) by UV-vis; format: physicochemical; details: colorless RPMI, 50 μM, 37 °C
Method: The stability of complexes 2, 3, 5, and 7 was assessed by UV–vis spectroscopy at 0, 24, and 48 h of incubation at 37 °C.
In Figure S18, it is possible to observe the spectra of all Cu(II) complexes, where high-energy absorption bands correspond to π → π* and n → π* transitions with peaks in the 230–330 and 330–400 nm ranges, respectively, that are associated with the aromatic rings of terpyridines.[39],[49] Analyzing the spectra of complexes 2 and 3, it is possible to detect the existence of 3 bands (maximum ∼240, ∼ 290, and between 320 and 340 nm). […] Complex 7 only has 2 bands of maximum absorbance at 290 nm and between 320 and 340 nm.
Nevertheless, all Cu(II) complex solutions were freshly prepared and added immediately to cells.

HCT116DoxR cells [7] = experiment: Annexin V-FITC/PI apoptosis assay by flow cytometry; details: 48 h; for cells (%) early apoptosis / cells (%) late apoptosis / cells (%) necrosis / cells (%) viable / percentage of apoptosis (early + late): complexes at IC50, Dox 6 μM, cisplatin 5 μM; for fold increase in apoptotic cells, normalized to DMSO: complexes at IC50, cisplatin 5 μM
Method: To evaluate the cell death mechanism involved in the cytotoxic effect of the selected complexes, a double-staining with Annexin V-FITC and PI was performed. […] The use of Annexin V conjugated with the fluorophore FITC allows the quantification of this interaction and subsequent identification of cells in apoptosis by flow cytometry. Furthermore, PI is a fluorophore that can intercalate with DNA and that can only enter the cell when the membrane is either compromised or ruptured, making it possible to identify cells undergoing late apoptosis and necrosis. Therefore, the double staining makes it possible to distinguish between viable cells (FITC^–; IP^–), those undergoing initial apoptosis (FITC^+; IP^–), those undergoing late apoptosis (FITC^+; IP^+), and those undergoing necrosis (FITC^–; IP^+).[55],[58]
Evaluation of apoptosis induction in HCT116DoxR cell line by flow cytometry The induction of apoptosis in HCT116DoxR cell line was evaluated by flow cytometry, using the
Annexin V-FITC Apoptosis Detection Kit (Thermo Fisher Scientific, Waltham, MA, USA). Cells
were seeded in 6-well plates at a cell density of 1×10^5 cells/mL and incubated for 24 h. Afterwards,
culture medium was replaced by medium with different Cu(II) complexes at their IC50 concentrations.
After 48 h of incubation, cells were washed with PBS 1x, detached from each well with TrypLETM
Express and washed again with PBS 1x. Cells were then resuspended in 1x annexin-binding buffer and
incubated at rt for 15 min with Annexin V-FITC and 100 μg/mL PI.
All samples were analysed by an Attune® Acoustic Focusing Flow Cytometer (Thermo Fischer
Scientific, Waltham, MA, USA) and the results were processed with Attune® Cytometric software

HCT116DoxR spheroids = experiment: MTS cell viability assay in 3D HCT116DoxR spheroids; format: cell-based, human; details: 6-day-old spheroids, 48 h of exposure

CCn1c2ccccc2c2cc(-c3cc(-c4ccccn4)nc(-c4ccccn4)c3)ccc21.CCn1c2ccccc2c2cc(-c3cc(-c4ccccn4)nc(-c4ccccn4)c3)ccc21.F[P-](F)(F)(F)(F)F.F[P-](F)(F)(F)(F)F.[Cl][Cu].[Cl][Cu] [complex 8, [Cu2Cl2(4′-(N-Ethyl-9H-carbazol-3-yl)-terpy)2](PF6)2]
IC50 [1]: 0.37 ± 0.06 µM | IC50 [2]: 0.19 ± 0.06 µM | IC50 [3]: 0.1 ± 0.03 µM | IC50 [4]: 7.36 ± 0.04 µM

[N-]=[N+]=[N-].[Na+] [NaN3, sodium azide, reference compound]
effect of control reagent alone on pUC18 (pUC18 plasmid DNA): no effect

c1ccc(-c2cc(-c3cccc4ccccc34)cc(-c3ccccn3)n2)nc1 [L1]
IC50 [2]: ~0.2 µM | IC50 [4]: > 50 µM

c1ccc(-c2cc(-c3ccccn3)nc(-c3ccccn3)c2)nc1 [L7]
IC50 [2]: 0.5 ± 0.06 µM | IC50 [4]: ~50 µM

CC(C)(C)OO [TBHP, Tert-Butyl hydroperoxide, reference compound]
effect of control reagent alone on pUC18 (pUC18 plasmid DNA): unable to induce pUC18 cleavage

c1ccc(-c2cc(-c3ccnc4ccccc34)cc(-c3ccccn3)n2)nc1 [L2]
IC50 [2]: 0.4 ± 0.02 µM | IC50 [4]: > 50 µM

F[P-](F)(F)(F)(F)F.F[P-](F)(F)(F)(F)F.[Cl][Cu].[Cl][Cu].c1ccc(-c2cc(-c3cccc4ccccc34)cc(-c3ccccn3)n2)nc1.c1ccc(-c2cc(-c3cccc4ccccc34)cc(-c3ccccn3)n2)nc1 [complex 1, [Cu2Cl2(4′-(1-Naphthyl)-terpy)2](PF6)2]
IC50 [1]: 0.8 ± 0.05 µM | IC50 [2]: 0.12 ± 0.01 µM | IC50 [3]: 0.16 ± 0.01 µM | IC50 [4]: 3.04 ± 0.02 µM

COc1ccc(-c2cc(-c3ccccn3)nc(-c3ccccn3)c2)c2ccccc12.COc1ccc(-c2cc(-c3ccccn3)nc(-c3ccccn3)c2)c2ccccc12.F[P-](F)(F)(F)(F)F.F[P-](F)(F)(F)(F)F.[Cl][Cu+].[Cl][Cu+] [complex 3, [Cu2Cl2(4′-(4-Methoxy-1-naphthyl)-terpy)2](PF6)2]
apparent binding constant (Kapp) (EB–ct-DNA adduct): 3.07 × 10^6 M^–1 | Stern–Volmer quenching constant KSV (EB–ct-DNA adduct): 6060 M⁻¹ | IC50 [1]: 0.66 ± 0.07 µM | formation of new blood vessels after 24 h (chicken embryos): antiangiogenic potential | formation of new blood vessels after 48 h (chicken embryos): greater decrease in the % of blood vessels formed | expression of BAX compared to the DMSO control (BAX and BCL-2): decreases | expression of BCL-2 compared to the DMSO control (BAX and BCL-2): increases | cell cycle progression after 12 h (HCT116DoxR cells [5]): delays cell cycle progression in the G2/M phase | cell cycle progression after 18 h (HCT116DoxR cells [5]): delay in cycle progression in the G0/G1 phase | fibroblast migration (% of remission) (fibroblasts): lower compared to the positive control Dox | IC50 [2]: 0.15 ± 0.01 µM | concentration at which the interaction with pDNA reaches saturation (pUC18 plasmid DNA): 50 μM | pDNA cleavage mode (pUC18 plasmid DNA): single strands | effect of NaN3 (singlet oxygen scavenger) on pDNA cleavage by the complex (pUC18 plasmid DNA): partially reversed | maximum absorbances after 24 or 48 h compared to 0 h (reduction of solubility) [6]: slight decrease | IC50 [3]: 0.13 ± 0.02 µM | cells (%) early apoptosis (HCT116DoxR cells [7]): 51.3 ± 5.7% | cells (%) late apoptosis (HCT116DoxR cells [7]): 14.9 ± 3.6% | cells (%) necrosis (HCT116DoxR cells [7]): 0.2 ± 0.2% | cells (%) viable (HCT116DoxR cells [7]): 33.7 ± 3.6% | percentage of apoptosis (early + late) (HCT116DoxR cells [7]): 65 to 70% | fold increase in apoptotic cells, normalized to DMSO (HCT116DoxR cells [7]): ~6.4 fold | IC50 (HCT116DoxR spheroids): 6.35 ± 0.12 µM | IC50 [4]: 6.24 ± 0.03 µM

c1ccc(-c2cc(-c3ccco3)cc(-c3ccccn3)n2)nc1 [L5]
IC50 [2]: 0.6 ± 0.02 µM | IC50 [4]: > 50 µM

COc1ccc2c(OC)ccc(-c3cc(-c4ccccn4)nc(-c4ccccn4)c3)c2c1 [L4]
IC50 [2]: 0.4 ± 0.25 µM | IC50 [4]: 13.1 ± 3.18 µM

COc1ccc2c(OC)ccc(-c3cc(-c4ccccn4)nc(-c4ccccn4)c3)c2c1.COc1ccc2c(OC)ccc(-c3cc(-c4ccccn4)nc(-c4ccccn4)c3)c2c1.F[P-](F)(F)(F)(F)F.F[P-](F)(F)(F)(F)F.[Cl][Cu].[Cl][Cu] [complex 4, [Cu2Cl2(4′-(4,7-Dimethoxy-1-naphthyl)-terpy)2](PF6)2]
IC50 [1]: 0.49 ± 0.1 µM | IC50 [2]: 0.16 ± 0.01 µM | IC50 [3]: 0.15 ± 0.04 µM | IC50 [4]: 2.64 ± 0.1 µM

CCn1c2ccccc2c2cc(-c3cc(-c4ccccn4)nc(-c4ccccn4)c3)ccc21 [L8]
IC50 [2]: 0.4 ± 0.04 µM | IC50 [4]: ~10 µM

F[P-](F)(F)(F)(F)F.F[P-](F)(F)(F)(F)F.[Cl][Cu].[Cl][Cu].c1ccc(-c2cc(-c3ccccn3)nc(-c3ccccn3)c2)nc1.c1ccc(-c2cc(-c3ccccn3)nc(-c3ccccn3)c2)nc1 [complex 7, [Cu2Cl2(4′-(2-Pyridynyl)-terpy)2](PF6)2]
apparent binding constant (Kapp) (EB–ct-DNA adduct): 1.16 × 10^6 M^–1 | Stern–Volmer quenching constant KSV (EB–ct-DNA adduct): 2320 M⁻¹ | IC50 [1]: 1.13 ± 0.2 µM | formation of new blood vessels after 24 h (chicken embryos): no pro- or antiangiogenic effect | formation of new blood vessels after 48 h (chicken embryos): antiangiogenic effect | expression of BAX compared to the DMSO control (BAX and BCL-2): decreases | expression of BCL-2 compared to the DMSO control (BAX and BCL-2): increases | cell cycle progression after 12 h (HCT116DoxR cells [5]): delays cell cycle progression in the G2/M phase | cell cycle progression after 18 h (HCT116DoxR cells [5]): delay in cycle progression in the G0/G1 phase | cell cycle progression after 24 h (HCT116DoxR cells [5]; 24 h, complexes at IC50, cisplatin 5 μM): delay the cycle in the G2/M phase | IC50 [2]: 0.19 ± 0.01 µM | concentration at which the interaction with pDNA reaches saturation (pUC18 plasmid DNA): 100 μM | pDNA cleavage mode (pUC18 plasmid DNA): single and double strands | effect of NaN3 (singlet oxygen scavenger) on pDNA cleavage by the complex (pUC18 plasmid DNA): almost completely reversed | IC50 [3]: 0.23 ± 0.01 µM | cells (%) early apoptosis (HCT116DoxR cells [7]): 37.4 ± 7.4% | cells (%) late apoptosis (HCT116DoxR cells [7]): 9.0 ± 2.6% | cells (%) necrosis (HCT116DoxR cells [7]): 1.1 ± 0.5% | cells (%) viable (HCT116DoxR cells [7]): 52.5 ± 6.7% | percentage of apoptosis (early + late) (HCT116DoxR cells [7]): ~46% | fold increase in apoptotic cells, normalized to DMSO (HCT116DoxR cells [7]): 5 fold | IC50 (HCT116DoxR spheroids): 30.48 ± 0.19 µM | IC50 [4]: 16.08 ± 0.05 µM
